The source of these data is US11434258B2, “Compounds (immunorhelins)” (ISR IMMUNE SYSTEM REGULATION HOLDING AB (PUBL), priority 2017, dated 2022).

One data set relates to T cells. In words: Immune stimulation assay: MHC class I expression on T cells (PBMCs, flow cytometry). Type of data set: cell-based, human. Particulars: PBMCs from a healthy donor, with IL-2, 72 hours. As to the method:
FIG. 1: Expression of MHC class I after stimulation of T cells with increasing concentrations of GnRH II. PBMCs from a healthy donor was stimulated with GnRH II and IL-2 for 72 hours. Data points represent mean fluorescent intensity of MCH class I expression on CD4^+ T cells (blue triangles) or CD8^+ T cells (black squares) measured with flow cytometry.
(black). […] Data points represent mean fluorescent intensity of MCH class I expression on CD4^+ T cells (A) or CD8^+ T cells (B) measured with flow cytometry.
Human peripheral blood mononuclear cells (PBMCs) were purified from healthy donors with Ficoll-Hypaque density centrifugation. Cells were cultured in RPMI-1640 medium (Invitrogen) supplemented with 10% fetal bovine serum, 100 […], 100 μg/mL streptomycin and IL-2 (100 U/mL) for 72 hours in 37° C., 5% CO2.
For orientation: Flow cytometry measures light scatter and fluorescence of single cells or particles in a stream.

The conditions of data set [1]: pH 7.4.

Counter-ions that a name gives are not always drawn. Non-standard residues stand in square brackets, D forms with d. Residues, ends and D or L forms follow the SMILES beside them. pGlu = O=C1CC[C@@H](C(=O)O)N1

Turning to `NC(=O)CNC(=O)[C@@H]1CCCN1C(=O)[C@H](Cc1ccc(O)cc1)NC(=O)[C@H](Cc1c[nH]c2ccccc12)NC(=O)CNC(=O)[C@H](Cc1c[nH]cn1)NC(=O)[C@H](CO)NC(=O)[C@H](Cc1c[nH]c2ccccc12)NC(=O)[C@H](Cc1c[nH]cn1)NC(=O)[C@@H]1CCC(=O)N1` [GnRH II] ([pGlu]HWSHGWYPG-NH2), the “MHC class I expression on T cells” value with T cells is listed as “directly activates these cells”.

With `CCNC(=O)[C@@H]1CCCN1C(=O)[C@H](CCCNC(=N)N)NC(=O)[C@H](CC(C)C)NC(=O)[C@@H](CC(C)C)NC(=O)[C@H](Cc1ccc(O)cc1)NC(=O)[C@H](CO)NC(=O)[C@H](Cc1c[nH]c2ccccc12)NC(=O)[C@H](Cc1c[nH]cn1)NC(=O)[C@@H]1CCC(=O)N1` [Leuprorelin TFA], the Solubility grading in data set [1] was determined as 1.

For the compound `CCNC(=O)[C@@H]1CCCN1C(=O)[C@H](CCCNC(=N)N)NC(=O)[C@H](CC(C)C)NC(=O)[C@@H](CC(C)C)NC(=O)[C@H](Cc1ccc(O)cc1)NC(=O)[C@H](CO)NC(=O)[C@H](Cc1c[nH]c2ccccc12)NC(=O)[C@H](Cc1c[nH]cn1)NC(=O)[C@@H]1CCC(=O)N1` [Leuprorelin acetate], the Solubility grading in data set [1] amounted to 2.
